Test results reported in ChEMBL document CHEMBL4417631, “Oral peptide inhibitors of interleukin-23 receptor and their use to treat inflammatory bowel diseases” (2017).
The source made the active and inactive calls. No cut-off for these calls is given here. Where a SMILES comes first, the peptide text is derived from it.

Assays:
[1] = biological target: T1, Interleukin-23 receptor (Homo sapiens, UniProt Q5VWK5); test: Inhibition of interleukin-23 receptor in human DB cells assessed as reduction in IL-23-stimulated STAT3 phosphorylation incubated for 30 mins by HTRF assay; format: cell-based
T1 sequence (Q5VWK5 whole entry): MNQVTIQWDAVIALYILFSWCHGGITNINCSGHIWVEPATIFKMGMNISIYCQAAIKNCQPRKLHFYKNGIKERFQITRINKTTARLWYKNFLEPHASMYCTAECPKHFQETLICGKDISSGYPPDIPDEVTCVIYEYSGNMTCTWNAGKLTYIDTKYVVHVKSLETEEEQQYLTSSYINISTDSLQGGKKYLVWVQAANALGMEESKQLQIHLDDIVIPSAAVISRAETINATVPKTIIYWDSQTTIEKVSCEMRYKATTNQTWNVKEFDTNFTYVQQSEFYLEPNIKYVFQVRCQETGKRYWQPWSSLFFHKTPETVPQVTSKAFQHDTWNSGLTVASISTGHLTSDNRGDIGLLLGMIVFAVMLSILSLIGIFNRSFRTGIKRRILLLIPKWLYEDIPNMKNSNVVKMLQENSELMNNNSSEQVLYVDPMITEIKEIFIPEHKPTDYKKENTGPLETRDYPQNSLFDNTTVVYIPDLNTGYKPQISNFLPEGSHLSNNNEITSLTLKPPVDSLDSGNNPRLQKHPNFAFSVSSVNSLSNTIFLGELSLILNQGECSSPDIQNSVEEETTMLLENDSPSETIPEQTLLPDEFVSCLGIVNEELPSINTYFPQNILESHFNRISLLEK

[2] = Half life in DTT at 50 uM up up to 120 mins by reverse phase HPLC and UV detection based assay; format: physicochemical
[3] = Inhibition of interleukin-23 binding to rat interleukin-23 receptor incubated for 2 hrs by competitive binding ELISA
[4] = biological target: T1, Interleukin-23 receptor; test: Inhibition of interleukin-23 binding to human interleukin-23 receptor incubated for 2 hrs by competitive binding ELISA
[5] = Half life in simulated gastric fluid at 20 uM by LC-MS/MS analysis; format: ADME
[6] = Half life in simulated intestinal fluid at 20 uM by LC-MS/MS analysis; format: ADME
[7] = system: Rattus norvegicus; test: Anti-colitis activity in Sprague-Dawley rat model of DSS-induced colitis assessed as reduction in colon macroscopic scores at 30 mg/kg, ip dosed 3 times per day; format: functional, organism-based
[8] = system: Rattus norvegicus; test: Anti-colitis activity in Sprague-Dawley rat model of DSS-induced colitis assessed as reduction in colon macroscopic scores at 30 mg/kg, po dosed 3 times per day; format: functional, organism-based
[9] = system: Rattus norvegicus; test: Anti-colitis activity in Sprague-Dawley rat model of DSS-induced colitis assessed as improvement in hematocrit scores level at 30 mg/kg, po dosed 3 times per day; format: functional, organism-based
[10] = system: Rattus norvegicus; test: Anti-colitis activity in Sprague-Dawley rat model of DSS-induced colitis assessed as improvement in hematocrit scores level at 30 mg/kg, ip dosed 3 times per day; format: functional, organism-based
[11] = system: Rattus norvegicus; test: Anti-colitis activity in Sprague-Dawley rat model of DSS-induced colitis assessed as reduction in disease activity index at 30 mg/kg, po dosed 3 times per day; format: functional
[12] = system: Rattus norvegicus; test: Anti-colitis activity in Sprague-Dawley rat model of DSS-induced colitis assessed as improvement in stool consistency scores level at 30 mg/kg, po dosed 3 times per day; format: functional, organism-based
[13] = system: Rattus norvegicus; test: Anti-colitis activity in Sprague-Dawley rat model of DSS-induced colitis assessed as colon weight/colon length ratio at 30 mg/kg, po dosed 3 times per day (124.36 +/- 17.11 g/cm); format: functional
[14] = system: Rattus norvegicus; test: Anti-colitis activity in Sprague-Dawley rat model of DSS-induced colitis assessed as change in body weight at 30 mg/kg, po dosed 3 times per day (-6.39 +/- 1.11%); format: functional
[15] = system: Rattus norvegicus; test: Anti-colitis activity in Sprague-Dawley rat model of DSS-induced colitis assessed as improvement in stool consistency scores level at 30 mg/kg, ip dosed 3 times per day; format: functional, organism-based
[16] = system: PBMC; test: Inhibition of IL12-stimulated IFNgamma production in PHA-activated human PBMC at 0.0001 to 100 uM by ELISA; format: functional, cell-based
[17] = system: Rattus norvegicus; test: Anti-colitis activity in Sprague-Dawley rat model of DSS-induced colitis assessed as reduction in disease activity index at 100 mg/kg, po qd for 9 days; format: functional, organism-based
[18] = biological target: T2, Interleukin-23 receptor (Mus musculus, UniProt Q8K4B4); test: Inhibition of interleukin-23 binding to mouse interleukin-23 receptor incubated for 2 hrs by competitive binding ELISA
T2 sequence (Q8K4B4 whole entry): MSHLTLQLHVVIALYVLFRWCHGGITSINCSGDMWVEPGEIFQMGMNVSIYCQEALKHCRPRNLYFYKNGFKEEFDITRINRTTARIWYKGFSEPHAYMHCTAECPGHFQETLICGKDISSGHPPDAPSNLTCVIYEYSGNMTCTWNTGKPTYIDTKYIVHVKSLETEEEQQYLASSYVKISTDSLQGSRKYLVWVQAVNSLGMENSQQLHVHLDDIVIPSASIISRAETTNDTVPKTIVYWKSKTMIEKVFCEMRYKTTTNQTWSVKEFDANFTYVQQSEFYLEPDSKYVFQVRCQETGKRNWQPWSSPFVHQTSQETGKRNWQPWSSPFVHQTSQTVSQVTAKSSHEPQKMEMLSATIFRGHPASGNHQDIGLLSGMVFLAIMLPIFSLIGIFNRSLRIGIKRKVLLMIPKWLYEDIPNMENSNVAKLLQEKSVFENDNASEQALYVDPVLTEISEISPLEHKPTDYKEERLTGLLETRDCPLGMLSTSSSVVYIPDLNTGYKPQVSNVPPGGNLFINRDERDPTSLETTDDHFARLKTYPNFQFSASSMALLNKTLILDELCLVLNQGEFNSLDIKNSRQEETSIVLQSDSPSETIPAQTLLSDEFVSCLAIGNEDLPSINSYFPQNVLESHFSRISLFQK

[19] = Inhibition of interleukin-23 binding to cynomolgus monkey interleukin-23 receptor incubated for 2 hrs by competitive binding ELISA; design: species or system Macaca fascicularis

## COc1ccc(C[C@H](NC(=O)[C@@H](NC(=O)[C@H](CCC(N)=O)NC(=O)[C@H](Cc2c[nH]c3ccccc23)NC(=O)[C@@H](NC(=O)[C@H](CCC(N)=O)NC(=O)[C@@H](NC(C)=O)C(C)(C)S)[C@@H](C)O)C(C)(C)S)C(=O)N[C@@H](Cc2ccc3ccccc3c2)C(=O)N[C@@](C)(CCCCN)C(=O)N[C@@H](CCC(=O)O)C(=O)N[C@@H](CC(N)=O)C(=O)NCC(N)=O)cc1
[1]
  IC50: 10 to 25 nM
[2]
  half-life at 50 µM: > 2 h
[3]
  IC50: 100 to 1000 nM
[4]
  IC50: 25 to 100 nM
[5]
  half-life at 20 µM: 2 to 3 h
[6]
  half-life at 20 µM: 3 to 6 h

## COc1ccc(C[C@H](NC(=O)[C@H]2NC(=O)[C@H](CCC(N)=O)NC(=O)[C@H](Cc3c[nH]c4ccccc34)NC(=O)[C@H]([C@@H](C)O)NC(=O)[C@H](CCC(N)=O)NC(=O)[C@@H](NC(C)=O)C(C)(C)SSC2(C)C)C(=O)N[C@@H](Cc2ccc3ccccc3c2)C(=O)N[C@@](C)(CCCCN)C(=O)N[C@@H](CCC(=O)O)C(=O)N[C@@H](CC(N)=O)C(=O)NCC(N)=O)cc1
[7]
  Activity: Active
[8]
  Activity: Active
[9]
  Activity: Active
[10]
  Activity: Active
[11]
  Activity_index: 0.61
[12]
  Activity: Active
[13]
  Ratio: 97.36 g/cm
[14]
  Activity: 0.13%
[15]
  Activity: Active
[16]
  inhibition: inactive

## CC(=O)N[C@H]1CCSC[C@@H](C(=O)N[C@@H](Cc2ccc(O)cc2)C(=O)N[C@@H](Cc2c[nH]c3ccccc23)C(=O)N[C@@H](CCCNC(=N)N)C(=O)N[C@@H](CCCCN)C(=O)N[C@@H](Cc2ccccc2)C(=O)NCC(=O)NCCOCC(=O)N[C@H](CCCCN)C(N)=O)NC(=O)[C@H](CCC(N)=O)NC(=O)[C@H](Cc2c[nH]c3ccccc23)NC(=O)[C@H]([C@@H](C)O)NC(=O)[C@H](CCCNC(=N)N)NC1=O
[1]
  IC50: 25 to 100 nM
[2]
  half-life at 50 µM: > 2 h
[3]
  IC50: 100 to 1000 nM
[4]
  IC50: 25 to 100 nM
[6]
  half-life at 20 µM: < 1 h

## O=C(O)c1cc(/N=N/c2ccc(S(=O)(=O)Nc3ccccn3)cc2)ccc1O
[17]
  Activity: Active

## N=C(N)NCCC[C@H](NC(=O)[C@@H](N)CS)C(=O)N[C@@H](CC(=O)O)C(=O)N[C@@H](Cc1c[nH]c2ccccc12)C(=O)N[C@@H](CCC(N)=O)C(=O)N[C@@H](CS)C(=O)N[C@@H](Cc1ccc(O)cc1)C(=O)N[C@@H](Cc1c[nH]c2ccccc12)C(=O)N[C@@H](Cc1cnc[nH]1)C(=O)N[C@@H](CCCCN)C(=O)N[C@@H](Cc1ccccc1)C(=O)NCC(N)=O (H-CRDWQCYWHKFG-NH2)
[3]
  IC50: 251 to 1000 nM
[4]
  IC50: 251 to 1000 nM
[18]
  IC50: > 25000 nM

## CC(C)[C@H](NC(=O)[C@H](Cc1c[nH]c2ccccc12)NC(=O)[C@H](CC(=O)O)NC(=O)[C@H](C)NC(=O)[C@@H](N)CS)C(=O)N[C@@H](CS)C(=O)N[C@@H](Cc1ccc(O)cc1)C(=O)N[C@@H](Cc1c[nH]c2ccccc12)C(=O)N[C@@H](Cc1cnc[nH]1)C(=O)N[C@H](C(=O)N[C@@H](Cc1ccccc1)C(=O)NCC(N)=O)[C@@H](C)O
[1]
  IC50: 100 to 1000 nM
[19]
  IC50: 1000 to 10000 nM
[3]
  IC50: 251 to 1000 nM
[4]
  IC50: 100 to 1000 nM
[18]
  IC50: > 25000 nM

## CC(=O)N[C@H](C(=O)N[C@@H](CCC(N)=O)C(=O)N[C@H](C(=O)N[C@@H](Cc1c[nH]c2ccccc12)C(=O)N[C@@H](CCC(N)=O)C(=O)N[C@H](C(=O)N[C@@H](Cc1ccc(O)cc1)C(=O)N[C@@H](Cc1c[nH]c2ccccc12)C(=O)N[C@@](C)(CC(C)C)C(=O)N[C@@H](CCC(=O)O)C(=O)N[C@@H](CC(N)=O)C(=O)NCC(N)=O)C(C)(C)S)[C@@H](C)O)C(C)(C)S
[1]
  IC50: 10 to 25 nM
[2]
  half-life at 50 µM: > 2 h
[3]
  IC50: 100 to 1000 nM
[4]
  IC50: 25 to 100 nM
[6]
  half-life at 20 µM: 3 to 6 h

## CC(=O)N[C@@H](CS)C(=O)N[C@@H](CCC(N)=O)C(=O)N[C@H](C(=O)N[C@@H](Cc1c[nH]c2ccccc12)C(=O)N[C@@H](CCC(N)=O)C(=O)N[C@@H](CS)C(=O)N[C@@H](Cc1ccc(O)cc1)C(=O)N[C@@H](Cc1c[nH]c2ccccc12)C(=O)N[C@@H](CCCNC(N)=O)C(=O)N[C@@H](CN)C(=O)N[C@@H](Cc1ccccc1)C(=O)NCC(=O)NCCOCC(=O)N[C@H](CCCCN)C(N)=O)[C@@H](C)O
[1]
  IC50: 1000 to 10000 nM
[19]
  IC50: 1000 to 10000 nM
[3]
  IC50: 1000 to 10000 nM
[4]
  IC50: 25 to 10000 nM
[18]
  IC50: > 25000 nM
